The values that follow come from the supplement of paper PMC10307832.

Assay in all cases: relative viability (nuclei count vs DMSO), 5 days (fraction); higher = more cells survive
Compound in experiment [1]: C1CC(C1)(C(=O)O)C(=O)O.[NH2-].[NH2-].[Pt+2] [Carboplatin] + CC(=O)c1c(C)c2cnc(Nc3ccc(N4CCNCC4)cn3)nc2n(C2CCCC2)c1=O [Palbociclib] (partner 0.5 µM)
Put shortly: (§1)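 Values are medians from duplicate plates. Each reflects relative viability, defined as the nuclei count of treated wells over that of vehicle wells. Lung cancer cell lines in 1536-well plates were pin-tool dosed one day after seeding with one drug alone or with a fixed anchor-drug dose plus five library-drug doses (not always all listed) in √10 steps, then fixed, stained and imaged at 4× after 5 days.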

Compound in the experiment “Carboplatin + Dasatinib”: C1CC(C1)(C(=O)O)C(=O)O.[NH2-].[NH2-].[Pt+2] [Carboplatin] + Cc1nc(Nc2ncc(C(=O)Nc3c(C)cccc3Cl)s2)cc(N2CCN(CCO)CC2)n1 [Dasatinib] (partner 0.075 µM)
Put shortly: as §1

Compound in the experiment “GSK126 + OSI-027”: CC[C@H](C)N1C=C(C2=C(C=C(C=C21)C3=CN=C(C=C3)N4CCNCC4)C(=O)NCC5=C(C=C(NC5=O)C)C)C [GSK126] + COc1cccc2cc(-c3nc([C@H]4CC[C@H](C(=O)O)CC4)n4ncnc(N)c34)[nH]c12 [OSI-027] (partner 0.5 µM)
The method, boiled down: as §1

Compound in the experiment “GSK126 + AZD7762”: CC[C@H](C)N1C=C(C2=C(C=C(C=C21)C3=CN=C(C=C3)N4CCNCC4)C(=O)NCC5=C(C=C(NC5=O)C)C)C [GSK126] + NC(=O)Nc1cc(-c2cccc(F)c2)sc1C(=O)N[C@H]1CCCNC1 [AZD7762] (partner 0.2 µM)
The method, boiled down:
as §1

For the cell line NCI-H322M, the relative viability was 0.496 in experiment [1] (first compound 0.08 µM); 0.476 in experiment [1] (first compound 0.253 µM); 0.472 in experiment [1] (first compound 0.8 µM); 0.45 in experiment [1] (first compound 2.53 µM); 0.507 in experiment [1] (first compound 8 µM); 0.281 with Carboplatin + Dasatinib (first compound 0.08 µM). Moreover, the relative viability in the experiment with Carboplatin + Dasatinib (first compound 0.253 µM) was 0.243; with Carboplatin + Dasatinib (first compound 0.8 µM), 0.255; with Carboplatin + Dasatinib (first compound 2.53 µM), 0.256; in the experiment with Carboplatin + Dasatinib (first compound 8 µM), 0.257; with GSK126 + OSI-027 (first compound 0.08 µM) it was 0.544; with GSK126 + OSI-027 (first compound 0.253 µM), 0.571. Further, the relative viability amounted to 0.56 with GSK126 + OSI-027 (first compound 0.8 µM); 0.565 in the experiment with GSK126 + OSI-027 (first compound 2.53 µM); 0.62 in the experiment with GSK126 + OSI-027 (first compound 8 µM); 0.538 in the experiment with GSK126 + AZD7762 (first compound 0.08 µM); 0.531 in the experiment with GSK126 + AZD7762 (first compound 0.253 µM); 0.536 with GSK126 + AZD7762 (first compound 0.8 µM). Moreover, the values for the relative viability with GSK126 + AZD7762 (first compound 2.53 µM) and with GSK126 + AZD7762 (first compound 8 µM) were 0.647 and 0.53, respectively.
Regarding NCI-H358, the relative viability is 0.141 in experiment [1] (first compound 0.08 µM); 0.148 in experiment [1] (first compound 0.253 µM); 0.144 in experiment [1] (first compound 0.8 µM); 0.149 in experiment [1] (first compound 2.53 µM); 0.183 in experiment [1] (first compound 8 µM); 0.162 with Carboplatin + Dasatinib (first compound 0.08 µM). Besides, the relative viability in the experiment with Carboplatin + Dasatinib (first compound 0.253 µM) was 0.171; with Carboplatin + Dasatinib (first compound 0.8 µM), 0.163; with Carboplatin + Dasatinib (first compound 2.53 µM) it was 0.178; with Carboplatin + Dasatinib (first compound 8 µM), 0.18; with GSK126 + OSI-027 (first compound 0.08 µM), 1; in the experiment with GSK126 + OSI-027 (first compound 0.253 µM), 0.85. Further, the relative viability with GSK126 + OSI-027 (first compound 0.8 µM) was 0.812; with GSK126 + OSI-027 (first compound 2.53 µM), 0.904; with GSK126 + OSI-027 (first compound 8 µM) it was 0.897; with GSK126 + AZD7762 (first compound 0.08 µM) it was 0.552; in the experiment with GSK126 + AZD7762 (first compound 0.253 µM), 0.471; with GSK126 + AZD7762 (first compound 0.8 µM), 0.482. Further, the relative viability with GSK126 + AZD7762 (first compound 2.53 µM) worked out at 0.768; with GSK126 + AZD7762 (first compound 8 µM), 0.476.
As to NCI-H441, the relative viability in experiment [1] (first compound 0.08 µM) came to 0.282; in experiment [1] (first compound 0.253 µM), 0.226; in experiment [1] (first compound 0.8 µM), 0.212; in experiment [1] (first compound 2.53 µM), 0.211; in experiment [1] (first compound 8 µM), 0.231; in the experiment with Carboplatin + Dasatinib (first compound 0.08 µM), 0.665. Moreover, the relative viability with Carboplatin + Dasatinib (first compound 0.253 µM) stood at 0.798; with Carboplatin + Dasatinib (first compound 0.8 µM), 0.546; with Carboplatin + Dasatinib (first compound 2.53 µM), 0.627; with Carboplatin + Dasatinib (first compound 8 µM), 0.47; with GSK126 + OSI-027 (first compound 0.08 µM), 0.949; with GSK126 + OSI-027 (first compound 0.253 µM) it was 0.686. Further, the relative viability in the experiment with GSK126 + OSI-027 (first compound 0.8 µM) turned out to be 0.637; with GSK126 + OSI-027 (first compound 2.53 µM), 0.677; with GSK126 + OSI-027 (first compound 8 µM), 0.543; in the experiment with GSK126 + AZD7762 (first compound 0.08 µM), 1.29; with GSK126 + AZD7762 (first compound 0.253 µM), 0.965; with GSK126 + AZD7762 (first compound 0.8 µM), 1.03. Further, the relative viability in the experiment with GSK126 + AZD7762 (first compound 2.53 µM) came to 1.1; with GSK126 + AZD7762 (first compound 8 µM), 1.08.
For NCI-H460, the relative viability in experiment [1] (first compound 0.08 µM) is 0.232; in experiment [1] (first compound 0.253 µM) it was 0.147; in experiment [1] (first compound 0.8 µM), 0.127; in experiment [1] (first compound 2.53 µM) it was 0.0559; in experiment [1] (first compound 8 µM), 0.052; with Carboplatin + Dasatinib (first compound 0.08 µM), 0.551. Also, the relative viability with Carboplatin + Dasatinib (first compound 0.253 µM) turned out to be 0.429; with Carboplatin + Dasatinib (first compound 0.8 µM) it was 0.464; with Carboplatin + Dasatinib (first compound 2.53 µM) it was 0.427; with Carboplatin + Dasatinib (first compound 8 µM) it was 0.183; in the experiment with GSK126 + OSI-027 (first compound 0.08 µM), 0.843; in the experiment with GSK126 + OSI-027 (first compound 0.253 µM), 0.615. In addition, the relative viability in the experiment with GSK126 + OSI-027 (first compound 0.8 µM) stood at 0.622; in the experiment with GSK126 + OSI-027 (first compound 2.53 µM), 0.718; with GSK126 + OSI-027 (first compound 8 µM), 0.656; with GSK126 + AZD7762 (first compound 0.08 µM), 0.616; with GSK126 + AZD7762 (first compound 0.253 µM) it was 0.5; with GSK126 + AZD7762 (first compound 0.8 µM), 0.594. Further, the results for the relative viability with GSK126 + AZD7762 (first compound 2.53 µM) and with GSK126 + AZD7762 (first compound 8 µM) were 0.538 and 0.546, respectively.
